The subject of experiment [1] is Human patients diagnosed as having kerratoconjunctivitis sicca (KCS; dry eye). As to the kind of experiment: Conjunctival lissamine green staining in dry eye patients treated with eye drops. The conditions noted are these: day 42, patients with Schirmer score <5 mm/5 min and SPK score at least 3. In kind it is in vivo. The method, then:
Human patients diagnosed as having kerratoconjunctivitis sicca (KCS; dry eye) were treated with eye drops containing either various concentrations of tacrolimus, a macrolide compound according to the invention or placebo. Eye drops were administered 3 times per day for six weeks (42 days). Patients were evaluated using the Schirmer test; corneal fluorescein staining, conjunctival lissamine green staining and an ocular discomfort score. Conjunctival lissamine green staining was performed by instilling a drop of lissamine green ophthalmic solution into the cul-de-sac of the eye. Following instillation, punctate staining was evaluated for the nasal and temporal interpalpebral conjunctiva using the following scoring system: [table]

Experiment [2] shares this test system. As to the kind of experiment: Ocular discomfort score in dry eye patients treated with eye drops. In kind it is in vivo. The note with it: day 42, patients with Schirmer score <5 mm/5 min and SPK score at least 3. The method, then: Human patients diagnosed as having kerratoconjunctivitis sicca (KCS; dry eye) were treated with eye drops containing either various concentrations of tacrolimus, a macrolide compound according to the invention or placebo. Eye drops were administered 3 times per day for six weeks (42 days). Patients were evaluated using the Schirmer test; corneal fluorescein staining, conjunctival lissamine green staining and an ocular discomfort score. Patients were also evaluated based on ratings of their ocular discomfort, which was a composite of scores for burning/stinging, irritation, photophobia, dry eye sensation and foreign body sensation. Scoring was on a five-point scale, as follows: [table]

[3] abbreviates: 0.01% eye drops 3 times per day.
Where [4] appears, read: 0.06% eye drops 3 times per day.

For the compound `C=CCC1/C=C(\C)CC(C)CC(OC)C2OC(O)(C(=O)C(=O)N3CCCCC3C(=O)OC(/C(C)=C/C3CCC(O)C(OC)C3)C(C)C(O)CC1=O)C(C)CC2OC` (stereo not shown) [macrolide compound], the “lissamine green staining decrease from baseline” value in experiment [1] (setting [3]) was determined as 1.8±1.47 units; in experiment [1] (setting [4]), 3.9±2.03 units. Also, the “mean ocular discomfort decrease from baseline” value turned out to be 6.0±4.43 units in experiment [2] (setting [3]) and 6.8±3.01 units in experiment [2] (setting [4]).

The values are drawn from patent publication US20040198763A1, “Method of treating dry eye with a macrolide compound” (Sucampo AG, priority 2003, published 2004).
